{
  "source": "patent US8853236B2",
  "about": "“Formulations containing clopidogrel and sulfoalkyl ether cyclodextrin and methods of use” (Cydex Pharmaceuticals, Inc., priority 2007, dated 2014)",
  "key": {"[1]": {"settings": "in vivo; cited from earlier work"}, "animals": {"tested_on": "animals", "settings": "in animals; cited from earlier work"}, "[2]": {"assay": "Competitive binding study of clopidogrel bisulfate and aspirin with SAE-CD (Example 22)", "format": "physicochemical", "settings": "pH ~5.5", "experimental": "In this example, excess clopidogrel bisulfate was added to solutions containing fixed amounts of SAE-CD and varying amounts of aspirin. FIG. 7 depicts the results of a competitive binding study. […] Thus, in a formulation containing both clopidogrel and aspirin, the formulation may or may not require additional SAE-CD to solubilize both ingredients than would be required to solubilize either component individually.\nThe competitive binding study was conducted using clopidogrel bisulphate and aspirin (ASA, acetyl salicylic acid). The work was conducted on an auto-titrator such that the pH was maintained at ˜5.5 using sodium hydroxide. The required amount of SBE-β-CD and aspirin was first solubilized in 0.2 μm Millipore filtered water then transferred to the auto-titrator.\nAfter equilibration, the solutions were sampled and analyzed for clopidogrel content."}, "[3]": {"tested_on": "ADP-induced platelet aggregation", "settings": "i.v., 0.1-300 mg clopidogrel", "quoted_text": "The response was determined as percent of platelet aggregation inhibition following exposure of the subjects' plasma ex-vivo to ADP (5 μM).\nBlood samples for determination of ADP-induced platelet aggregation inhibition using the impedance method (see Dyszkiewicz-Korpanty et al. above) were obtained from arm #2 (the arm not used for dosing) at baseline (check-in, Day −1), 15 and 30 minutes, and 2, 5, and 24 hours after dose initiation.\nMaximum % platelet inhibition and area under the % platelet inhibition curve was calculated for each individual and summarized by treatment group"}, "platelet aggregation": {"tested_on": "platelet aggregation", "settings": "subjects who were non-responders to clopidogrel (10-300 mg) perorally"}, "[4]": {"settings": "pH 5.6, 37° C., 0.1M phosphate buffer; cited from earlier work"}, "phosphodiesterase": {"tested_on": "phosphodiesterase", "settings": "cited from earlier work"}},
  "data": [
    {"smiles": "COC(=O)[C@@H](c1ccccc1Cl)N1CCc2sccc2C1", "note": "(single isomer, unassigned) [(R)-enantiomer of clopidogrel]", "values": [
      {"measurement": "antithrombotic activity", "setting": "[1]", "value": "devoid of antithrombotic activity"},
      {"measurement": "convulsions", "setting": "animals", "value": "can provoke convulsions"}
    ]},
    {"smiles": "CC(=O)Oc1ccccc1C(=O)O", "note": "[aspirin, acetyl salicylic acid]", "values": [
      {"measurement": "binding with SAE-CD in a solution containing SAE-CD and clopidogrel salt", "setting": "[2]", "value": "binds competitively"}
    ]},
    {"smiles": "COC(=O)[C@H](c1ccccc1Cl)N1CCc2sccc2C1.O=S(=O)(O)O", "note": "[clopidogrel bisulfate, methyl (+)-(S)-α-(2-chlorophenyl)-6,7-dihydrothieno[3,2-c]pyridine-5(4H)-acetate sulfate (1:1)]", "values": [
      {"measurement": "time to onset of the therapeutic effect (platelet aggregation inhibition, 5 μM ADP ex vivo)", "setting": "[3]", "value": "≤ 15", "unit": "min"},
      {"measurement": "subjects deemed responders after parenteral administration", "setting": "platelet aggregation", "value": "9-25%"},
      {"measurement": "t90 toward hydrolysis", "setting": "[4]", "value": "about 52.7 days"},
      {"measurement": "inhibition of phosphodiesterase activity", "setting": "phosphodiesterase", "value": "does not inhibit"}
    ]}
  ]
}
